{"source": "patent US10669284B2", "about": "“Fused thiazolopyrimidine derivatives as MNKS inhibitors” (LIFEARC, priority 2015, dated 2020)", "key": {"MAP3K7": {"target": "T1, MAP3K7 (Homo sapiens, UniProt O43318)", "T1 sequence (O43318 1-303 limits assumed)": "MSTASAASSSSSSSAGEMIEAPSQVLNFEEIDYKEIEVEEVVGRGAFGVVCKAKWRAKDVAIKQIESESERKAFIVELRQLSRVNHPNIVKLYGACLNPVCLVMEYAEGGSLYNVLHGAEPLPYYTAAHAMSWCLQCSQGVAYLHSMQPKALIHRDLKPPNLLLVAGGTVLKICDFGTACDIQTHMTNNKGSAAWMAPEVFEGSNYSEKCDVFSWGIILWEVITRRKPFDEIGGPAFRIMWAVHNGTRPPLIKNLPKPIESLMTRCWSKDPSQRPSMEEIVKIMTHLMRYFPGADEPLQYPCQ", "assay": "Kinase selectivity screen MAP3K7", "conditions": "read-out: % inhibition of MAP3K7"}, "CDK6/CCND3": {"target": "CDK6/CCND3 (Homo sapiens, UniProt Q00534)", "sequence (Q00534 whole entry, species assumed)": "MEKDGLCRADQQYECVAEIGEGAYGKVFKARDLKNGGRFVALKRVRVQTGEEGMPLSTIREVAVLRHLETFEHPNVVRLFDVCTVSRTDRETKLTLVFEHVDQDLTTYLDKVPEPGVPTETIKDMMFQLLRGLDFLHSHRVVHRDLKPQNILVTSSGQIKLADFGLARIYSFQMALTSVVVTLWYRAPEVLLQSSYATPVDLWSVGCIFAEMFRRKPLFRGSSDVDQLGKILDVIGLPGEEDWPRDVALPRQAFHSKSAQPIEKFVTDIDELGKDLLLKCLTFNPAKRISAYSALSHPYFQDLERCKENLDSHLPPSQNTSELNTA", "sequence (P30281 whole entry partner, species assumed)": "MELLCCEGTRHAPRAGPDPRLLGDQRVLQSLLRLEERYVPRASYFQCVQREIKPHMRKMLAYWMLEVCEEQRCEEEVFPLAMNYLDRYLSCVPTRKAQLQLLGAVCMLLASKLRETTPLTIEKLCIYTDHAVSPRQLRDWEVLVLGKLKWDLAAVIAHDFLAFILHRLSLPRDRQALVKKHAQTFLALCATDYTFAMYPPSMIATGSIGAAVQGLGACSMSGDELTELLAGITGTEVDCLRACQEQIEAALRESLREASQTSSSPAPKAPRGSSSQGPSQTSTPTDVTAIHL", "assay": "Kinase selectivity screen CDK6/CCND3", "conditions": "read-out: % inhibition of CDK6/CCND3"}, "STK17A": {"target": "T2, STK17A (Homo sapiens, UniProt Q9UEE5)", "T2 sequence (Q9UEE5 1-414)": "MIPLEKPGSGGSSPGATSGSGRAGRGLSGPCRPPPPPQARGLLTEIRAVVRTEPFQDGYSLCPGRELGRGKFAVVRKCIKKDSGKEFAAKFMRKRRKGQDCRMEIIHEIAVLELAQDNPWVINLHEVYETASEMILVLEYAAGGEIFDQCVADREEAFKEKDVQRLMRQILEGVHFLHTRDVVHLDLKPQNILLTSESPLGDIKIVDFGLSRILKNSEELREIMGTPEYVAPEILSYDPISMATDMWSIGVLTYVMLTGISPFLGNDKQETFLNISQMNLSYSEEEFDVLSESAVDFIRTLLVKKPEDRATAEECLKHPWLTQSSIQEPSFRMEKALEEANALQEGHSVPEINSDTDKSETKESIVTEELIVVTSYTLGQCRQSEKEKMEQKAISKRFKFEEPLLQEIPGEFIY", "assay": "Kinase selectivity screen STK17A", "conditions": "read-out: % inhibition of STK17A"}, "STK11": {"target": "T3, STK11 (Homo sapiens, UniProt Q15831)", "T3 sequence (Q15831 1-433)": "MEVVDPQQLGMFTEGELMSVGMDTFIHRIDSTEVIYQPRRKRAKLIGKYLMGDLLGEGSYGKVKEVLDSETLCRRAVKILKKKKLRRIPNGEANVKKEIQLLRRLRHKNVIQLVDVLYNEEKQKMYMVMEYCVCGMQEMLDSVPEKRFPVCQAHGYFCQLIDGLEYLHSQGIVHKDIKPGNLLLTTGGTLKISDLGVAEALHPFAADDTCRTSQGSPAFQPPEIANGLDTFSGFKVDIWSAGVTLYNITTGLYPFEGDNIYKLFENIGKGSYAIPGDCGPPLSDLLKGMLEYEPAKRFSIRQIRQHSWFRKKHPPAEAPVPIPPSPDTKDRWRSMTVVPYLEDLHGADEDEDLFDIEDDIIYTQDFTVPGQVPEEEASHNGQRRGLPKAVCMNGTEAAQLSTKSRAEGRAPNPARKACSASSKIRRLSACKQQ", "T3 sequence (Q7RTN6 1-431 partner)": "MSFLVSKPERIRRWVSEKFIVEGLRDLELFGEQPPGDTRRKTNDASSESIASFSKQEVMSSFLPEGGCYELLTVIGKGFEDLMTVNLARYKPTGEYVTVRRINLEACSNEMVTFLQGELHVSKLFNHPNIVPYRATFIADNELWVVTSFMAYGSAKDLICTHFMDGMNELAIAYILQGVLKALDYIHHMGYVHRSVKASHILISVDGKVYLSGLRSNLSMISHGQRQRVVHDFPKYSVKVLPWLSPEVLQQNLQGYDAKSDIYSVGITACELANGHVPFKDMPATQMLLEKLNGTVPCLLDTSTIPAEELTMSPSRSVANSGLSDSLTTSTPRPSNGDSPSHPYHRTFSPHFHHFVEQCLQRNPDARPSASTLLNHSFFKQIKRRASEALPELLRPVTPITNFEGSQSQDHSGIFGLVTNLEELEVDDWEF", "T3 sequence (Q9Y376 1-341 partner)": "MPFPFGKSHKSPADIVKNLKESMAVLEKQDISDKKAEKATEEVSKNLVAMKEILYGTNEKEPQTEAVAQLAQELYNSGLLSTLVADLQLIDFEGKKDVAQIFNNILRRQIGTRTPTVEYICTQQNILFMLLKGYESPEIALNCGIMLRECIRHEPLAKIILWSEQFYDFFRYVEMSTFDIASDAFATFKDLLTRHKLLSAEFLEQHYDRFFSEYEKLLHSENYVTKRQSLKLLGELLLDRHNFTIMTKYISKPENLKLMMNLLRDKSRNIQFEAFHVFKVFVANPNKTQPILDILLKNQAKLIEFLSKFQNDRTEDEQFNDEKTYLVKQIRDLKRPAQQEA", "assay": "Kinase selectivity screen STK11", "conditions": "read-out: % inhibition of STK11"}, "RAF1": {"target": "RAF1 (Homo sapiens, UniProt P04049)", "assay": "Kinase selectivity screen RAF1", "conditions": "read-out: % inhibition of RAF1"}, "MYLK": {"target": "MYLK (Homo sapiens, UniProt Q15746)", "sequence (Q15746 1425-1771)": "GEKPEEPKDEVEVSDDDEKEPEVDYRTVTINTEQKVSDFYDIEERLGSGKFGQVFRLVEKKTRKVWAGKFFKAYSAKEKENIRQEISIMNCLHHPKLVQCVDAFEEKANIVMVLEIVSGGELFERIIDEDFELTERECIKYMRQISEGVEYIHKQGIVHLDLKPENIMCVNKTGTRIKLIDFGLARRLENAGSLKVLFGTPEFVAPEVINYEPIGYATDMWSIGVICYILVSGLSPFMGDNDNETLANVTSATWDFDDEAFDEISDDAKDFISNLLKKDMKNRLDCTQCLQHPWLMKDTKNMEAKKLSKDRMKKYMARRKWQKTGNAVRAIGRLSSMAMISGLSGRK", "assay": "Kinase selectivity screen MYLK", "conditions": "read-out: % inhibition of MYLK"}, "MTOR": {"target": "MTOR (Homo sapiens, UniProt P42345)", "assay": "Kinase selectivity screen MTOR", "conditions": "read-out: % inhibition of MTOR"}, "EPHA5": {"target": "EPHA5 (Homo sapiens, UniProt P54756)", "sequence (P54756 25-1037, species assumed)": "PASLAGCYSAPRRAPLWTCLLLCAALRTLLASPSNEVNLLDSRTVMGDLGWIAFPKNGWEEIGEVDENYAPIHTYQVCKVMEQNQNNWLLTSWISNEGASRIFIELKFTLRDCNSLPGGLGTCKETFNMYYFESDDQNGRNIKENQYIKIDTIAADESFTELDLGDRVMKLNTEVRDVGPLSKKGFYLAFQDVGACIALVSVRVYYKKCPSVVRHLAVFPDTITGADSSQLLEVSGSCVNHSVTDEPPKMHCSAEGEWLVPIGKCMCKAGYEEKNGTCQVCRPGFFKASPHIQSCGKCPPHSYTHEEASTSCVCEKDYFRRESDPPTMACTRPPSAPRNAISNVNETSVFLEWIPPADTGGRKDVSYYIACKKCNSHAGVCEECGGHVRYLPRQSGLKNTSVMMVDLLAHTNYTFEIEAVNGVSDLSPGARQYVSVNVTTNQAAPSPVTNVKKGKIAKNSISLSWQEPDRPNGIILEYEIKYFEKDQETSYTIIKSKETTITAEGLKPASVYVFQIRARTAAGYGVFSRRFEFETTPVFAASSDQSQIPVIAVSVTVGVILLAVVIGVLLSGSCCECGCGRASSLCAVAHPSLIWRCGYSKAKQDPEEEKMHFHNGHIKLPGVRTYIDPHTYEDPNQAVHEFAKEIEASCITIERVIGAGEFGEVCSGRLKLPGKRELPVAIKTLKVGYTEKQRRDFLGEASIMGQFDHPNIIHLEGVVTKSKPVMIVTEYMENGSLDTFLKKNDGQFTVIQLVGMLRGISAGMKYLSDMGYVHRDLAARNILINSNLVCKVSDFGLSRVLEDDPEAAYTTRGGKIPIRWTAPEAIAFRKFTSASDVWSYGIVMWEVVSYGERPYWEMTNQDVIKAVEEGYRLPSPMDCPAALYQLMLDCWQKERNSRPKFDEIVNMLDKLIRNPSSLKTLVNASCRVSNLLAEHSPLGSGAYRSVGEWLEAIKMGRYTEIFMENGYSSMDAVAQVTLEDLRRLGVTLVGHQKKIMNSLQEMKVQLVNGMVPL", "assay": "Kinase selectivity screen EPHA5", "conditions": "read-out: % inhibition of EPHA5"}, "INSR": {"target": "INSR (Homo sapiens, UniProt P06213)", "sequence (P06213 28-1382, species assumed)": "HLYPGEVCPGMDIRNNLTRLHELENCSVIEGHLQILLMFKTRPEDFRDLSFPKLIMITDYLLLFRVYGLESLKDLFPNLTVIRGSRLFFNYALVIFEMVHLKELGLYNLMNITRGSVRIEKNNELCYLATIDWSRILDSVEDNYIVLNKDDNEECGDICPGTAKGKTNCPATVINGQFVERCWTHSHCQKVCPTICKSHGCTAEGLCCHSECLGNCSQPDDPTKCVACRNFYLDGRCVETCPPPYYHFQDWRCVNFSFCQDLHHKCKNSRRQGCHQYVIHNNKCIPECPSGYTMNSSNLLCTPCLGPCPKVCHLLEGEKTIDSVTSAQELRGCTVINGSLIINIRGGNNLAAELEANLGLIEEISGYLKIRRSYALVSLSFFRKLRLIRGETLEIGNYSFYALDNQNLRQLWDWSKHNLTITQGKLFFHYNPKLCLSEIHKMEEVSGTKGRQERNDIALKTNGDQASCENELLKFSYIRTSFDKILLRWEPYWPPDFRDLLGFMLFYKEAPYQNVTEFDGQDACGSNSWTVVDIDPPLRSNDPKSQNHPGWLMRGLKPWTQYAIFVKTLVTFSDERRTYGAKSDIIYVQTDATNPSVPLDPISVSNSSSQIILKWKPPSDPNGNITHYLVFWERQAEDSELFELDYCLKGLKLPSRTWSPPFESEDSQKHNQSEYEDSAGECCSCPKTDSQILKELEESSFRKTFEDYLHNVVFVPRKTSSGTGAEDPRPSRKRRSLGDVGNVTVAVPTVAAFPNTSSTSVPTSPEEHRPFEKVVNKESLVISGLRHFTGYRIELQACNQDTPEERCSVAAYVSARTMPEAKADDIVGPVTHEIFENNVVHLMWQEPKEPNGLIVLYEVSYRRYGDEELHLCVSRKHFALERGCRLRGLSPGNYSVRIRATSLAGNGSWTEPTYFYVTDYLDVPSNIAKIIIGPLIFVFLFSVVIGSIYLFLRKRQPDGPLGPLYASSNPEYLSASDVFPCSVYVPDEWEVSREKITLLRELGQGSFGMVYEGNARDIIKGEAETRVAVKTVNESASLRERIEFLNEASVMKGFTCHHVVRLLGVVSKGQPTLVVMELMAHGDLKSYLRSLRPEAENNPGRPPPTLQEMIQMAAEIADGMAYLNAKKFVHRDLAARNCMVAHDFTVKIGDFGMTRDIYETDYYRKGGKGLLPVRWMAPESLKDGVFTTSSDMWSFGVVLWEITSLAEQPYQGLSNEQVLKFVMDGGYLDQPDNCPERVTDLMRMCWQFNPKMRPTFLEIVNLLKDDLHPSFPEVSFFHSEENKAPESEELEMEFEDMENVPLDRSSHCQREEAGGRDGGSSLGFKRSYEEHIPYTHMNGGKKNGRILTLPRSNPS", "assay": "Kinase selectivity screen INSR", "conditions": "read-out: % inhibition of INSR"}, "CDK1/CCNB1": {"target": "CDK1/CCNB1 (Homo sapiens, UniProt P06493)", "sequence (P06493 whole entry, species assumed)": "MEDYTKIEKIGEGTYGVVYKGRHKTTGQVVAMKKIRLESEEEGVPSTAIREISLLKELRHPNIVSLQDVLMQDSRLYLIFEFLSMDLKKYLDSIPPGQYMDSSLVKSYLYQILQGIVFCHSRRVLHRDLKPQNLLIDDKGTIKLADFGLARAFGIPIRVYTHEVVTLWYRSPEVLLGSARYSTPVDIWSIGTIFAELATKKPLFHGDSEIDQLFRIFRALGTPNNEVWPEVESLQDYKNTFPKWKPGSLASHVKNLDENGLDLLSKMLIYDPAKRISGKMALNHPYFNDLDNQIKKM", "sequence (P14635 whole entry partner, species assumed)": "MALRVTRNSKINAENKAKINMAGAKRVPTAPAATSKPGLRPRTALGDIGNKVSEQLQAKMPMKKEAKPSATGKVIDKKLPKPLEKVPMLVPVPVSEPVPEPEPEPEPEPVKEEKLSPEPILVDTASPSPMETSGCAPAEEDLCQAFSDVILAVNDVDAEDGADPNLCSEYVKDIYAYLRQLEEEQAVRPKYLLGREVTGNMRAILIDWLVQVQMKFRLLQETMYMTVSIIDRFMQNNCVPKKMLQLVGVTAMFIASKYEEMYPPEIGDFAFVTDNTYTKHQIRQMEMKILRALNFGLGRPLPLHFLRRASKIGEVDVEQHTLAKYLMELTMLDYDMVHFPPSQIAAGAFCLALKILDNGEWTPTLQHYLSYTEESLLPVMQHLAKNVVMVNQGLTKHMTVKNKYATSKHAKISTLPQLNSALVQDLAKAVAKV", "assay": "Kinase selectivity screen CDK1/CCNB1", "conditions": "read-out: % inhibition of CDK1/CCNB1"}, "BTK": {"target": "BTK (Homo sapiens, UniProt Q06187)", "sequence (Q06187 whole entry, species assumed)": "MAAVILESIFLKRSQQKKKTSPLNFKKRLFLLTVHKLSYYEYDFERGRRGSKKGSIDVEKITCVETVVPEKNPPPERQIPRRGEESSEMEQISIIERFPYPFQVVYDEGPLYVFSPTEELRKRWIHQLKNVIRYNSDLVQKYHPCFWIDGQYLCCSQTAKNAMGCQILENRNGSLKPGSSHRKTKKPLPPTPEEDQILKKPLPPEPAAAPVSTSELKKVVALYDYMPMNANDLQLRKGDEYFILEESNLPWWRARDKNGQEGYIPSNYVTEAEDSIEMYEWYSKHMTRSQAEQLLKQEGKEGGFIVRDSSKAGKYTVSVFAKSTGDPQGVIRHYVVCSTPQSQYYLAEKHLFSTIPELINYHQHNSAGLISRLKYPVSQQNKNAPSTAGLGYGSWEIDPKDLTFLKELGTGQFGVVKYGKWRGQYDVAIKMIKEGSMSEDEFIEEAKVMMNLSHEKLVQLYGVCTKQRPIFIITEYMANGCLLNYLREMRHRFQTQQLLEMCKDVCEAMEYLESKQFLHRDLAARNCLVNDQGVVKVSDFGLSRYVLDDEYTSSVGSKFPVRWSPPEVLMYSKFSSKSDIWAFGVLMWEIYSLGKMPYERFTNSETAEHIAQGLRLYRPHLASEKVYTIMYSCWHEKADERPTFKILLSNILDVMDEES", "assay": "Kinase selectivity screen BTK", "conditions": "read-out: % inhibition of BTK"}, "YES1": {"target": "YES1 (Homo sapiens, UniProt P07947)", "assay": "Kinase selectivity screen YES1", "conditions": "read-out: % inhibition of YES1"}}, "data": [{"compound": "CN(C)CCCNC(=O)c1nc2c(N3CCc4cc(F)ccc43)ncnc2s1", "note": "[Example 64, N-[3-(dimethylamino)propyl]-7-(5-fluoroindolin-1-yl)thiazolo[5,4-d]pyrimidine-2-carboxamide]", "values": [{"measurement": "inhibition at 1 µM", "setting": "MAP3K7", "value": 0, "unit": "%"}, {"measurement": "inhibition at 1 µM", "setting": "CDK6/CCND3", "value": 9, "unit": "%"}, {"measurement": "inhibition at 1 µM", "setting": "STK17A", "value": 70, "unit": "%"}, {"measurement": "inhibition at 1 µM", "setting": "STK11", "value": 10, "unit": "%"}, {"measurement": "inhibition at 1 µM", "setting": "RAF1", "value": 0, "unit": "%"}, {"measurement": "inhibition at 1 µM", "setting": "MYLK", "value": 15, "unit": "%"}, {"measurement": "inhibition at 1 µM", "setting": "MTOR", "value": 3, "unit": "%"}, {"measurement": "inhibition at 1 µM", "setting": "EPHA5", "value": 0, "unit": "%"}, {"measurement": "inhibition at 1 µM", "setting": "INSR", "value": 0, "unit": "%"}, {"measurement": "inhibition at 1 µM", "setting": "CDK1/CCNB1", "value": 4, "unit": "%"}, {"measurement": "inhibition at 1 µM", "setting": "BTK", "value": 0, "unit": "%"}, {"measurement": "inhibition at 1 µM", "setting": "YES1", "value": 4, "unit": "%"}]}, {"compound": "CC(C)Oc1cc(F)ccc1Nc1ncnc2sc(C(=O)NCC3CCNCC3)nc12", "note": "[Example 10, 7-(4-fluoro-2-isopropoxy-anilino)-N-(4-piperidylmethyl)thiazolo[5,4-d]pyrimidine-2-carboxamide]", "values": [{"measurement": "inhibition at 1 µM", "setting": "MAP3K7", "value": 20, "unit": "%"}, {"measurement": "inhibition at 1 µM", "setting": "CDK6/CCND3", "value": 3, "unit": "%"}, {"measurement": "inhibition at 1 µM", "setting": "STK17A", "value": 2, "unit": "%"}, {"measurement": "inhibition at 1 µM", "setting": "STK11", "value": 21, "unit": "%"}, {"measurement": "inhibition at 1 µM", "setting": "RAF1", "value": 0, "unit": "%"}, {"measurement": "inhibition at 1 µM", "setting": "MYLK", "value": 10, "unit": "%"}, {"measurement": "inhibition at 1 µM", "setting": "MTOR", "value": 4, "unit": "%"}, {"measurement": "inhibition at 1 µM", "setting": "EPHA5", "value": 11, "unit": "%"}, {"measurement": "inhibition at 1 µM", "setting": "INSR", "value": 8, "unit": "%"}, {"measurement": "inhibition at 1 µM", "setting": "CDK1/CCNB1", "value": 8, "unit": "%"}, {"measurement": "inhibition at 1 µM", "setting": "BTK", "value": 6, "unit": "%"}, {"measurement": "inhibition at 1 µM", "setting": "YES1", "value": 4, "unit": "%"}]}, {"compound": "O=C(NCC1CCNCC1)c1nc2c(N3CCc4cc(F)ccc43)ncnc2s1", "note": "[Example 58, 7-(5-fluoroindolin-1-yl)-N-(4-piperidylmethyl)thiazolo[5,4-d]pyrimidine-2-carboxamide]", "values": [{"measurement": "inhibition at 1 µM", "setting": "MAP3K7", "value": 14, "unit": "%"}, {"measurement": "inhibition at 1 µM", "setting": "CDK6/CCND3", "value": 0, "unit": "%"}, {"measurement": "inhibition at 1 µM", "setting": "STK17A", "value": 41, "unit": "%"}, {"measurement": "inhibition at 1 µM", "setting": "STK11", "value": 7, "unit": "%"}, {"measurement": "inhibition at 1 µM", "setting": "RAF1", "value": 1, "unit": "%"}, {"measurement": "inhibition at 1 µM", "setting": "MYLK", "value": 15, "unit": "%"}, {"measurement": "inhibition at 1 µM", "setting": "MTOR", "value": 0, "unit": "%"}, {"measurement": "inhibition at 1 µM", "setting": "EPHA5", "value": 0, "unit": "%"}, {"measurement": "inhibition at 1 µM", "setting": "INSR", "value": 20, "unit": "%"}, {"measurement": "inhibition at 1 µM", "setting": "CDK1/CCNB1", "value": 0, "unit": "%"}, {"measurement": "inhibition at 1 µM", "setting": "BTK", "value": 9, "unit": "%"}, {"measurement": "inhibition at 1 µM", "setting": "YES1", "value": 14, "unit": "%"}]}]}
